Experimental data published in paper PMC11032351, “Epigenetic modulation through BET bromodomain inhibitors as a novel therapeutic strategy for progranulin-deficient frontotemporal dementia” (Scientific Reports, 2024).

Test system: PGRN protein levels
Assay: PGRN quantification (Jess) in human NPCs
Type: cell-based
Settings: for increase in PGRN protein levels: 1 µM for 24 h; for increase in PGRN: lysed immediately
Experimental: PGRN capillary gel electrophoresis experiments were performed using Jess (Bio-Techne) and data were processed and analyzed using Compass for Simple Western software (version 6.0). Runs were conducted using EZ Standard Pack 1 12-230 kDa (Bio-Techne PS-ST01EZ-8), 12-230 kDa pre-filled plates (PS-PP03), 12-230 kDa separation module (SMW004), anti-rabbit HRP detection ([…]-001), and total protein detection modules (DM-TP01, biotin labeling reagent 042-973) according to the manufacturer's instructions, and with anti-PGRN primary (Abcam ab208777) diluted 1:50 in milk-free antibody dilution buffer (043-524). […] All intensity quantifications are normalized to the total protein assay quantification unless otherwise indicated. NPCs were cultured normally in 6-well plates as described previously. Upon reaching confluency, DMSO or MLN-4924 (Cayman #15,217, 10 mM stock in DMSO) were diluted 1:5000 into NPC media with growth factors. 1 mL of media was aspirated from the cell cultures, and 1 mL of MLN-4924 or DMSO dilutions were then added to respective wells (final well concentration: 1 μM MLN-4924 in select wells, 0.01% DMSO for all wells). Plates returned to the incubator. […] Plates returned to the incubator. After 4 h, to the indicated wells is directly added 1 μL 2 mM mivebresib (MedChem Express HY-100015) in DMSO for a final concentration of 1 μM, or 1 μL DMSO. All plates were returned to the incubator overnight. The next day, 24 h from the addition of mivebresib, plates were removed from the incubator, and all wells were washed with 2 mL PBS, and then lysed in 300 μL M-PER lysis buffer with protease inhibitors. Cells were allowed to lyse for 15 min at 4 °C with light nutation, and then lysate was transferred to a 1.5-mL Eppendorf tube which was then spun down at 20 k rcf at 4 °C for 10 min. 200 μL of supernatant was then transferred to a fresh, labeled Eppendorf rube, which was then stored at - 20 °C prior to further analysis. Sample concentration was quantified using the BCA assay as described above, and normalized to 250 μg/mL in M-PER lysis buffer prior to PGRN quantification using the Jess. NPCs were cultured normally as described previously. 6-well plates were seeded at 300,000 cells/well in 2 mL of NPC media with EGF, bFGF, and heparin as described above. Cells were allowed to grow to confluency for three nights at 37 °C with 5% CO2. […] These solutions were then diluted 1:10 in NPC media with growth factors containing 0.2% DMSO to make 100 nM compound solutions. Treatment wells were washed with 2 mL PBS prior to addition of 2 mL NPC media with growth factors containing compound (or DMSO only) at indicated concentrations (3 replicates per condition, 6 DMSO replicates). Plates were then allowed to incubate at 37 °C with 5% CO2 for 24 h. After 24 h, cells were removed from the incubator, washed with 1 mL PBS, and then lysed with 500 μL M-PER lysis buffer (Thermo Fisher #78,501) with 1 cOmplete Mini, EDTA-free protease inhibitor added (Sigma-Aldrich#11,836,170,001) per 15 mL lysis buffer. Plates were allowed to nutate at 4 °C for 15 min before transferring the lysate to 1.5 mL Eppendorf tubes, which were then spun down at 20,000 rcf at 4 °C for 10 min. 400 μL of the supernatant was then transferred to fresh 1.5-mL Eppendorf tubes, which were then frozen down at - 80 °C prior to further use. Samples were removed from the - 80 °C and concentrations were determined via BCA assay (Thermo Scientific #23,227) using a pre-diluted BSA standard (Life Technologies #23,208) on a 96-well polystyrene plate (Thermo Fisher #12,565,500). Samples were diluted to 0.25 mg/mL using M-PER lysis buffer prior to PGRN quantification using the Jess. NPCs were cultured as described above, and seeded onto coated 24-well plates at 150,000 cells/well in 1 mL NPC media with growth factors. Plates were allowed to grow to ~ 100% confluency for three nights at 37 °C with 5% CO2. […] Plates were allowed to incubate overnight at 37 °C with 5% CO2 for 24 h. […]

SMILES | increase in PGRN protein levels | also measured
Cn1cc(-c2cc(F)cnc2Oc2ccc(F)cc2)c2cc[nH]c2c1=O [Compound 86A, 4-(5-fluoro-2-(4-fluorophenoxy)pyridin-3-yl)-6-methyl-1,6-dihydro-7H-pyrrolo[2,3-c]pyridin-7-one] | less substantial response | 
Cn1cc(-c2cccnc2Oc2ccc(F)c(F)c2)c2cc[nH]c2c1=O [Compound 81A, 4-(2-(3,4-difluorophenoxy)pyridin-3-yl)-6-methyl-1,6-dihydro-7H-pyrrolo[2,3-c]pyridin-7-one] | > twofold | 
Cn1cc(-c2cccnc2Oc2cc(F)cc(F)c2)c2cc[nH]c2c1=O [Compound 82A, 4-(2-(3,5-difluorophenoxy)pyridin-3-yl)-6-methyl-1,6-dihydro-7H-pyrrolo[2,3-c]pyridin-7-one] | > twofold | 
Cn1ccc2c(-c3cccnc3Oc3ccc(F)c(F)c3)c[nH]c2c1=O [Compound 81B, 3-(2-(3,4-difluorophenoxy)pyridin-3-yl)-6-methyl-1,6-dihydro-7H-pyrrolo[2,3-c]pyridin-7-one] | significantly enhance PGRN protein levels | 
Cn1ccc2c(-c3cccnc3Oc3ccc(F)cc3)c[nH]c2c1=O [Compound 18B, 3-[2-(4-fluorophenoxy)pyridin-3-yl]-6-methyl-1,6-dihydro-7H-pyrrolo[2,3-c]pyridin-7-one] | significantly enhance PGRN protein levels | 
Cn1cc(-c2cccnc2Oc2ccc(F)cc2)c2cc[nH]c2c1=O [Compound 18A, 4-(2-(4-fluorophenoxy)pyridin-3-yl)-6-methyl-1H-pyrrolo[2,3-c]pyridin-7(6H)-one] | > twofold | 
Cn1cc(-c2cccnc2Sc2ccc(F)cc2)c2cc[nH]c2c1=O [Compound 84A, 4-(2-((4-fluorophenyl)thio)pyridin-3-yl)-6-methyl-1,6-dihydro-7H-pyrrolo[2,3-c]pyridin-7-one] | less substantial response | 
Cn1ccc2c(-c3cc(F)cnc3Oc3ccc(F)cc3)c[nH]c2c1=O [Compound 86B, 3-(5-fluoro-2-(4-fluorophenoxy)pyridin-3-yl)-6-methyl-1,6-dihydro-7H-pyrrolo[2,3-c]pyridin-7-one] | unable to upregulate PGRN | 
CCS(=O)(=O)Nc1ccc(Oc2ccc(F)cc2F)c(-c2cn(C)c(=O)c3[nH]ccc23)c1 [mivebresib] |  | enhancement of PGRN protein levels (100 nM, 24 h): ~ 120%; enhancement of PGRN protein levels after washout (1 µM for 2 h, then 22 h of incubation post-washout): > twofold; enhancement of PGRN protein levels after washout (1 µM for 8 h, washout, lysis 24 h from compound addition): more pronounced effect; Normalized PGRN (Fold-DMSO) (1 µM mivebresib 24 h, vs matching bar without mivebresib): 1.82 x; Normalized PGRN (Fold-DMSO) (1 µM mivebresib 24 h with 300 nM dBET6): 1.26 x; Normalized PGRN (Fold-DMSO) (1 µM mivebresib 24 h with 1 µM MLN-4924 and 300 nM dBET6): 1.47 x; increase in PGRN (1 µM, 8 h): ~ 1.4 fold; enhancement of PGRN protein levels (1 µM, 24 h): ~140%; increase in PGRN (1 µM, 24 h): ~ 2.7 fold
Cn1ccc2c(-c3cccnc3Sc3ccc(F)cc3)c[nH]c2c1=O [Compound 84B, 3-(2-((4-fluorophenyl)thio)pyridin-3-yl)-6-methyl-1,6-dihydro-7H-pyrrolo[2,3-c]pyridin-7-one] | significantly enhance PGRN protein levels | 
Cn1ccc2c(-c3cccnc3Nc3ccc(F)cc3)c[nH]c2c1=O [Compound 85B, 3-(2-((4-fluorophenyl)amino)pyridin-3-yl)-6-methyl-1,6-dihydro-7H-pyrrolo[2,3-c]pyridin-7-one] | unable to upregulate PGRN | 
Cn1cc(-c2cccnc2Nc2ccc(F)cc2)c2cc[nH]c2c1=O [Compound 85A, 4-(2-((4-fluorophenyl)amino)pyridin-3-yl)-6-methyl-1,6-dihydro-7H-pyrrolo[2,3-c]pyridin-7-one] | > twofold | 
Cn1ccc2c(-c3cccnc3Oc3cc(F)cc(F)c3)c[nH]c2c1=O [Compound 82B, 3-(2-(3,5-difluorophenoxy)pyridin-3-yl)-6-methyl-1,6-dihydro-7H-pyrrolo[2,3-c]pyridin-7-one] | significantly enhance PGRN protein levels | 
